Data as given in PubChem BioAssay (NCI).
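48-hour exposure; five concentrations; linearly interpolated endpoints. Here, GI50 denotes the concentration required for 50% inhibition of growth. The concentration for full growth arrest is given as TGI.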

Assays:
Experiment in all cases: inhibition of tumour cell growth, NCI panel, 48 h; in the data active = GI50 below about 0.43 µM; inactive = the rest
786-0 renal = system: 786-0 renal
A549 NSCLC = system: A549 NSCLC
ACHN renal = system: ACHN renal
BT-549 breast = system: BT-549 breast
CAKI-1 renal = system: CAKI-1 renal
CCRF-CEM leukemia = system: CCRF-CEM leukemia
COLO 205 colon = system: COLO 205 colon
DU-145 prostate = system: DU-145 prostate
EKVX NSCLC = system: EKVX NSCLC
HCC-2998 colon = system: HCC-2998 colon
HCT-116 colon = system: HCT-116 colon
HCT-15 colon = system: HCT-15 colon
HL-60(TB) leukemia = system: HL-60(TB) leukemia
HOP-62 NSCLC = system: HOP-62 NSCLC
HOP-92 NSCLC = system: HOP-92 NSCLC
HT29 colon = system: HT29 colon
IGROV1 ovarian = system: IGROV1 ovarian
K-562 leukemia = system: K-562 leukemia
KM12 colon = system: KM12 colon
LOX IMVI melanoma = system: LOX IMVI melanoma
M14 melanoma = system: M14 melanoma
MALME-3M melanoma = system: MALME-3M melanoma
MCF7 breast = system: MCF7 breast
MDA-MB-231 breast = system: MDA-MB-231 breast
MDA-MB-435 = system: MDA-MB-435
MOLT-4 leukemia = system: MOLT-4 leukemia
NCI-H226 lung = system: NCI-H226 lung
NCI-H23 lung = system: NCI-H23 lung
NCI-H460 lung = system: NCI-H460 lung
NCI-H522 lung = system: NCI-H522 lung
NCI/ADR-RES ovarian = system: NCI/ADR-RES ovarian
OVCAR-4 ovarian = system: OVCAR-4 ovarian
OVCAR-5 ovarian = system: OVCAR-5 ovarian
OVCAR-8 ovarian = system: OVCAR-8 ovarian
PC-3 prostate = system: PC-3 prostate
RPMI-8226 leukemia = system: RPMI-8226 leukemia
SF-295 CNS = system: SF-295 CNS
SF-539 CNS = system: SF-539 CNS
SK-MEL-2 melanoma = system: SK-MEL-2 melanoma
SK-MEL-28 melanoma = system: SK-MEL-28 melanoma
SK-MEL-5 melanoma = system: SK-MEL-5 melanoma
SN12C renal = system: SN12C renal
SNB-19 CNS = system: SNB-19 CNS
SR leukemia = system: SR leukemia
SW-620 colon = system: SW-620 colon
TK-10 renal = system: TK-10 renal
U251 CNS = system: U251 CNS
UACC-257 melanoma = system: UACC-257 melanoma
RXF 393 renal = system: RXF 393 renal
SK-OV-3 ovarian = system: SK-OV-3 ovarian
OVCAR-3 ovarian = system: OVCAR-3 ovarian
SF-268 CNS = system: SF-268 CNS
SNB-75 CNS = system: SNB-75 CNS
T-47D breast = system: T-47D breast
UACC-62 melanoma = system: UACC-62 melanoma
UO-31 renal = system: UO-31 renal

COCCOC(=O)NCn1cc(-c2ccccc2)nn1
> 100 µM: TGI (786-0 renal) | TGI (A549 NSCLC) | TGI (ACHN renal) | TGI (BT-549 breast) | TGI (CAKI-1 renal) | TGI (CCRF-CEM leukemia) | TGI (COLO 205 colon) | TGI (DU-145 prostate) | TGI (EKVX NSCLC) | TGI (HCC-2998 colon) | TGI (HCT-116 colon) | TGI (HCT-15 colon) | TGI (HL-60(TB) leukemia) | TGI (HOP-62 NSCLC) | TGI (HOP-92 NSCLC) | TGI (HT29 colon) | TGI (IGROV1 ovarian) | TGI (K-562 leukemia) | TGI (KM12 colon) | TGI (LOX IMVI melanoma) | TGI (M14 melanoma) | TGI (MALME-3M melanoma) | TGI (MCF7 breast) | TGI (MDA-MB-231 breast) | TGI (MDA-MB-435) | TGI (MOLT-4 leukemia) | TGI (NCI-H226 lung) | TGI (NCI-H23 lung) | TGI (NCI-H460 lung) | TGI (NCI-H522 lung) | TGI (NCI/ADR-RES ovarian) | TGI (OVCAR-4 ovarian) | TGI (OVCAR-5 ovarian) | TGI (OVCAR-8 ovarian) | TGI (PC-3 prostate) | TGI (RPMI-8226 leukemia) | TGI (SF-295 CNS) | TGI (SF-539 CNS) | TGI (SK-MEL-2 melanoma) | TGI (SK-MEL-28 melanoma) | TGI (SK-MEL-5 melanoma) | TGI (SN12C renal) | TGI (SNB-19 CNS) | TGI (SR leukemia) | TGI (SW-620 colon) | TGI (TK-10 renal) | TGI (U251 CNS) | TGI (UACC-257 melanoma)

CSc1ccc2c(c1)C(=O)c1c-2n(CCCN)c(=O)c2cc([N+](=O)[O-])ccc12
0.147 µM: TGI (HOP-62 NSCLC)
0.16 µM: TGI (DU-145 prostate)
active: GI50 (786-0 renal) 0.0127 µM | GI50 (ACHN renal) < 0.01 µM | GI50 (DU-145 prostate) < 0.01 µM | GI50 (HCC-2998 colon) 0.104 µM | GI50 (HCT-116 colon) < 0.01 µM | GI50 (HCT-15 colon) 0.0962 µM | GI50 (HOP-62 NSCLC) < 0.01 µM | GI50 (M14 melanoma) 0.0249 µM | GI50 (MDA-MB-231 breast) 0.215 µM | GI50 (NCI-H23 lung) < 0.01 µM | GI50 (OVCAR-5 ovarian) 0.123 µM | GI50 (SK-MEL-5 melanoma) 0.127 µM | GI50 (SK-OV-3 ovarian) < 0.0117 µM | GI50 (SW-620 colon) < 0.01 µM
0.422 µM: TGI (MDA-MB-231 breast)
0.249 µM: TGI (HCT-15 colon)
0.209 µM: TGI (SW-620 colon)
0.581 µM: TGI (HCC-2998 colon)
1.07 µM: TGI (M14 melanoma)
1.37 µM: TGI (SK-OV-3 ovarian)
0.872 µM: TGI (OVCAR-5 ovarian)
0.108 µM: TGI (786-0 renal)
1.63 µM: TGI (SK-MEL-5 melanoma)
0.327 µM: TGI (ACHN renal)
0.158 µM: TGI (NCI-H23 lung)
inactive: GI50 (RXF 393 renal) 1.95 µM
0.173 µM: TGI (HCT-116 colon)
> 100 µM: TGI (RXF 393 renal)

CCC1C(C)C=NN1c1nc(N)nc(C(C#N)=Nc2ccc(N(C)C)cc2)n1 (centres undefined)
26.8 µM: TGI (SW-620 colon)
17.4 µM: TGI (DU-145 prostate)
24 µM: TGI (RXF 393 renal)
20.4 µM: TGI (CCRF-CEM leukemia)
19.6 µM: TGI (HCC-2998 colon)
15.7 µM: TGI (LOX IMVI melanoma)
23.2 µM: TGI (SF-268 CNS)
21.8 µM: TGI (OVCAR-3 ovarian)
16.5 µM: TGI (M14 melanoma)
28.8 µM: TGI (NCI-H226 lung)
26.6 µM: TGI (OVCAR-5 ovarian)
18.6 µM: TGI (KM12 colon)
22.6 µM: TGI (SNB-75 CNS)
17.8 µM: TGI (MCF7 breast) | TGI (SK-OV-3 ovarian)
24.5 µM: TGI (NCI-H460 lung)
10.1 µM: TGI (PC-3 prostate)
18.4 µM: TGI (SK-MEL-28 melanoma)
22 µM: TGI (NCI/ADR-RES ovarian)
5.97 µM: TGI (SF-539 CNS)
20.8 µM: TGI (CAKI-1 renal)
17.1 µM: TGI (ACHN renal) | TGI (SK-MEL-5 melanoma)
32.2 µM: TGI (EKVX NSCLC)
16.1 µM: TGI (SF-295 CNS)
16.8 µM: TGI (U251 CNS)
30.9 µM: TGI (MDA-MB-231 breast)
31 µM: TGI (OVCAR-8 ovarian)
18.9 µM: TGI (SN12C renal) | TGI (TK-10 renal)
inactive: GI50 (786-0 renal) 17.4 µM | GI50 (A549 NSCLC) 33.9 µM | GI50 (ACHN renal) 9.17 µM | GI50 (CAKI-1 renal) 9.06 µM | GI50 (CCRF-CEM leukemia) 6.11 µM | GI50 (DU-145 prostate) 9.32 µM | GI50 (EKVX NSCLC) 11.3 µM | GI50 (HCC-2998 colon) 9.93 µM | GI50 (HCT-116 colon) 16.5 µM | GI50 (HCT-15 colon) 15.6 µM | GI50 (HL-60(TB) leukemia) 7.62 µM | GI50 (HOP-62 NSCLC) 18.8 µM | GI50 (HOP-92 NSCLC) 12.1 µM | GI50 (HT29 colon) 16.5 µM | GI50 (IGROV1 ovarian) 30.9 µM | GI50 (K-562 leukemia) 2.73 µM | GI50 (KM12 colon) 9.85 µM | GI50 (LOX IMVI melanoma) 8.53 µM | GI50 (M14 melanoma) 9.11 µM | GI50 (MCF7 breast) 9.76 µM | GI50 (MDA-MB-231 breast) 11.4 µM | GI50 (MDA-MB-435) 16.7 µM | GI50 (MOLT-4 leukemia) 21.6 µM | GI50 (NCI-H226 lung) 10.8 µM | GI50 (NCI-H23 lung) 13.8 µM | GI50 (NCI-H460 lung) 11.1 µM | GI50 (NCI-H522 lung) > 50 µM | GI50 (NCI/ADR-RES ovarian) 9.88 µM | GI50 (OVCAR-3 ovarian) 10.1 µM | GI50 (OVCAR-4 ovarian) 16.3 µM | GI50 (OVCAR-5 ovarian) 10.2 µM | GI50 (OVCAR-8 ovarian) 10.6 µM | GI50 (PC-3 prostate) 2.53 µM | GI50 (RPMI-8226 leukemia) 2.55 µM | GI50 (RXF 393 renal) 10.3 µM | GI50 (SF-268 CNS) 10.6 µM | GI50 (SF-295 CNS) 8.96 µM | GI50 (SF-539 CNS) 1.03 µM | GI50 (SK-MEL-2 melanoma) 32.2 µM | GI50 (SK-MEL-28 melanoma) 8.61 µM | GI50 (SK-MEL-5 melanoma) 9.09 µM | GI50 (SK-OV-3 ovarian) 9.32 µM | GI50 (SN12C renal) 9.76 µM | GI50 (SNB-19 CNS) > 50 µM | GI50 (SNB-75 CNS) 8.95 µM | GI50 (SR leukemia) 9.56 µM | GI50 (SW-620 colon) 12.1 µM | GI50 (T-47D breast) 23.5 µM | GI50 (TK-10 renal) 10.6 µM | GI50 (U251 CNS) 8.93 µM | GI50 (UACC-257 melanoma) > 50 µM | GI50 (UACC-62 melanoma) 14.6 µM | GI50 (UO-31 renal) 15.1 µM
> 50 µM: TGI (786-0 renal) | TGI (A549 NSCLC) | TGI (HCT-116 colon) | TGI (HCT-15 colon) | TGI (HL-60(TB) leukemia) | TGI (HOP-62 NSCLC) | TGI (HOP-92 NSCLC) | TGI (HT29 colon) | TGI (IGROV1 ovarian) | TGI (K-562 leukemia) | TGI (MDA-MB-435) | TGI (MOLT-4 leukemia) | TGI (NCI-H23 lung) | TGI (NCI-H522 lung) | TGI (OVCAR-4 ovarian) | TGI (RPMI-8226 leukemia) | TGI (SK-MEL-2 melanoma) | TGI (SNB-19 CNS) | TGI (SR leukemia) | TGI (T-47D breast) | TGI (UACC-257 melanoma) | TGI (UACC-62 melanoma) | TGI (UO-31 renal)
